The test system of assay [1] is SETVI. In words: Herbicidal pre-emergence action 2a (greenhouse pots, visual scoring). Particulars: dosage 320 g/ha, visual scoring after about 3 weeks vs untreated controls. In kind it is in vivo, Setaria viridis. In a few lines:
(§1)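 Visual scoring after roughly 3 weeks, as percent effect relative to untreated pots (0% = like control, 100% = dead). Seeds were covered with soil, then the surface received aqueous WP/EC suspension or emulsion (0.5% additive, 600 l/ha) at 320 and/or 80 g/ha.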

The next assay has as its system POLCO. Described as above. It is filed as in vivo, Polygonum convolvulus. The settings on record: dosage 320 g/ha, visual scoring after about 3 weeks vs untreated controls. An outline of the steps:
as §1

A further assay relates to AVEFA. In words: Herbicidal post-emergence action 1a (greenhouse pots, visual rating). The settings on record: rated visually about 3 weeks after treatment, 100% = plants have died, 0% = like control plants. In kind it is in vivo, Avena fatua. An outline of the steps:
(§2)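 Weeds and crops sown in sandy loam in greenhouse pots were sprayed post-emergence at the one-leaf stage (2–3 weeks after sowing) with WP or EC formulations plus 0.5% additive at 600 l/ha water, 320 and/or 80 g/ha. About 3 weeks later damage was rated visually against untreated controls (0% = no effect, 100% = dead).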

In the next assay the test system is harmful plants. The experiment in a line: Herbicidal post-emergence action 1a, summary across species. Particulars: Tables A1 to A15 (320 g/ha and/or 80 g/ha). It is filed as in vivo.
Assay [2] has as its system LOLRI. In words: Herbicidal pre-emergence action 2a (greenhouse pots, visual scoring). The settings on record: dosage 320 g/ha, visual scoring after about 3 weeks vs untreated controls. In kind it is in vivo, Lolium rigidum. An outline of the steps: as §1
For assay [3], the system named is LOLRI. In words: Herbicidal post-emergence action 1a (greenhouse pots, visual rating). It is filed as in vivo, Lolium rigidum. Particulars: rated visually about 3 weeks after treatment, 100% = plants have died, 0% = like control plants. An outline of the steps:
as §2

The subject of a further assay is DIGSA. The assay is described as above. It is filed as in vivo, Digitaria sanguinalis. The settings on record: rated visually about 3 weeks after treatment, 100% = plants have died, 0% = like control plants. In a few lines:
as §2

The next assay has as its system AMARE. The assay is described as above. In kind it is in vivo, Amaranthus retroflexus. The settings on record: dosage 320 g/ha, visual rating about 3 weeks after treatment. An outline of the steps:
as §2

Another assay relates to VIOTR. In words: Herbicidal pre-emergence action 2a (greenhouse pots, visual scoring). It is filed as in vivo, Viola tricolor. The settings on record: dosage 320 g/ha, visual scoring after about 3 weeks vs untreated controls. In a few lines: as §1
For assay [4], the system named is SETVI. The experiment in a line: Herbicidal post-emergence action 1a (greenhouse pots, visual rating). It is filed as in vivo, Setaria viridis. Particulars: rated visually about 3 weeks after treatment, 100% = plants have died, 0% = like control plants. In a few lines:
as §2

A further assay relates to ECHCG. The experiment in a line: Herbicidal post-emergence action 1b (twin sowing, 1280 g/ha). In kind it is in vivo, Echinochloa crus-galli. The settings on record: dosage 1280 g/ha, visual rating about 3 weeks after treatment. An outline of the steps:
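Post-emergence foliar spray on one-leaf weeds grown two species per pot in sandy loam; ~3 weeks later, visual rating from 0% (as control) to 100% (plants died).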

As to `COC(=O)[C@@H](C)Oc1nn(-c2cnccn2)c(-c2cncc(F)c2)c1Br` [Example I-39], the “Pre-emergence action against SETVI in %” value with SETVI [1] was 100%. Moreover, the “Pre-emergence action against POLCO in %” value in the assay on POLCO is 90%. In addition, the “Post-emergence action against AVEFA in %” value is given as 80% in the assay with AVEFA (Dosage 80 g/ha) and 90% in the assay on AVEFA (Dosage 320 g/ha). Moreover, the “herbicidal efficacy against harmful plants in the case of post-emergence treatment (in words)” value in the assay on harmful plants is “good herbicidal efficacy”. For the same compound, the “Pre-emergence action against LOLRI in %” value with LOLRI [2] worked out at 100%. For the same compound, the “Post-emergence action against LOLRI in %” value in the assay with LOLRI [3] (Dosage 80 g/ha) and in the assay on LOLRI [3] (Dosage 320 g/ha) was 90% in each case. Also, the “Post-emergence action against DIGSA in %” value is 80% in the assay with DIGSA (Dosage 80 g/ha) and 90% in the assay on DIGSA (Dosage 320 g/ha). The “Post-emergence action against AMARE in %” value in the assay on AMARE is 80%. Moreover, the “Pre-emergence action against VIOTR in %” value in the assay on VIOTR amounted to 100%. The “Post-emergence action against SETVI in %” value with SETVI [4] (Dosage 80 g/ha) and with SETVI [4] (Dosage 320 g/ha) was 80% each time. For the same compound, the “Post-emergence action at 1280 g/ha against ECHCG in %” value in the assay on ECHCG amounted to 100%.

Turning to `C[C@H](Oc1nn(-c2cnccn2)c(-c2cncc(F)c2)c1Br)C(=O)O` [Example I-37], the “Pre-emergence action against SETVI in %” value in the assay with SETVI [1] is 100%. Further, the “Pre-emergence action against POLCO in %” value with POLCO was 100%. Further, the “Post-emergence action against AVEFA in %” value in the assay with AVEFA (Dosage 80 g/ha) and in the assay on AVEFA (Dosage 320 g/ha) was 90% throughout. In addition, the “herbicidal efficacy against harmful plants in the case of post-emergence treatment (in words)” value in the assay on harmful plants is “good herbicidal efficacy”. The “Pre-emergence action against LOLRI in %” value in the assay with LOLRI [2] was found to be 100%. The “Post-emergence action against LOLRI in %” value in the assay on LOLRI [3] (Dosage 320 g/ha) is listed as 90%. Moreover, the “Post-emergence action against DIGSA in %” value with DIGSA (Dosage 320 g/ha) is 90%. The “Post-emergence action against AMARE in %” value in the assay with AMARE stood at 90%. Also, the “Pre-emergence action against VIOTR in %” value in the assay with VIOTR is listed as 100%. The “Post-emergence action against SETVI in %” value with SETVI [4] (Dosage 80 g/ha) and in the assay with SETVI [4] (Dosage 320 g/ha) was 90% throughout. For the same compound, the “Post-emergence action at 1280 g/ha against ECHCG in %” value in the assay on ECHCG is recorded as 100%.

These data come from patent US20230167088A1, “1-PYRAZINYLPYRAZOLYL-3-OXYALKYL ACIDS AND THEIR DERIVATIVES, AND THEIR USE FOR CONTROL OF UNDESIRED PLANT GROWTH” (BAYER AKTIENGESELLSCHAFT, priority 2020, published 2023).
